Measurements published in US20100292231A1, “Indazole Compounds for Treating Inflammatory Disorders, Demyelinating Disorders and Cancers” (priority 2007, published 2010).
pEC50: −log10 of the molar value. Where two headings read alike, the source gives them in different places.

How the values were obtained:
Assay in all cases: SelectScreen kinase specificity survey
Type in all cases: biochemical
[1] = molecular target: T1, MAP4K5 (KHS1) (Homo sapiens, UniProt Q9Y4K4); conditions: estimated, abridged dose response curve, read-out: Kinase inhibitory activity EC50
T1 construct: purchased Invitrogen (SelectScreen platform)
Summary of the method: (§1)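 Optical reporter read-out of substrate phosphorylation, with a substrate unique to each kinase and ATP at 100 micromolar. A 5-increment inhibitor series was fitted by a sigmoid 4-parameter Hill model.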

[2] = molecular target: T2, HIPK4 (Homo sapiens, UniProt Q8NE63); conditions: estimated, abridged dose response curve, read-out: Kinase inhibitory activity EC50
T2 construct: purchased Invitrogen (SelectScreen platform)
Summary of the method: as §1

[3] = molecular target: T3, SRPK1 (Homo sapiens, UniProt Q96SB4); conditions: estimated, abridged dose response curve, read-out: Kinase inhibitory activity EC50
T3 construct: purchased Invitrogen, Inc. (SelectScreen service)
Summary of the method: as §1

[4] = molecular target: T4, PHKG1 (Homo sapiens, UniProt Q16816); conditions: estimated, abridged dose response curve, read-out: Kinase inhibitory activity EC50
T4 construct: purchased Invitrogen, Inc. (SelectScreen platform)
Summary of the method: as §1

[5] = molecular target: T5, TEK (Tie2) (Homo sapiens, UniProt Q02763); conditions: estimated, abridged dose response curve, read-out: Kinase inhibitory activity EC50
T5 construct: purchased Invitrogen (SelectScreen)
T5 sequence (Q02763 23-1124): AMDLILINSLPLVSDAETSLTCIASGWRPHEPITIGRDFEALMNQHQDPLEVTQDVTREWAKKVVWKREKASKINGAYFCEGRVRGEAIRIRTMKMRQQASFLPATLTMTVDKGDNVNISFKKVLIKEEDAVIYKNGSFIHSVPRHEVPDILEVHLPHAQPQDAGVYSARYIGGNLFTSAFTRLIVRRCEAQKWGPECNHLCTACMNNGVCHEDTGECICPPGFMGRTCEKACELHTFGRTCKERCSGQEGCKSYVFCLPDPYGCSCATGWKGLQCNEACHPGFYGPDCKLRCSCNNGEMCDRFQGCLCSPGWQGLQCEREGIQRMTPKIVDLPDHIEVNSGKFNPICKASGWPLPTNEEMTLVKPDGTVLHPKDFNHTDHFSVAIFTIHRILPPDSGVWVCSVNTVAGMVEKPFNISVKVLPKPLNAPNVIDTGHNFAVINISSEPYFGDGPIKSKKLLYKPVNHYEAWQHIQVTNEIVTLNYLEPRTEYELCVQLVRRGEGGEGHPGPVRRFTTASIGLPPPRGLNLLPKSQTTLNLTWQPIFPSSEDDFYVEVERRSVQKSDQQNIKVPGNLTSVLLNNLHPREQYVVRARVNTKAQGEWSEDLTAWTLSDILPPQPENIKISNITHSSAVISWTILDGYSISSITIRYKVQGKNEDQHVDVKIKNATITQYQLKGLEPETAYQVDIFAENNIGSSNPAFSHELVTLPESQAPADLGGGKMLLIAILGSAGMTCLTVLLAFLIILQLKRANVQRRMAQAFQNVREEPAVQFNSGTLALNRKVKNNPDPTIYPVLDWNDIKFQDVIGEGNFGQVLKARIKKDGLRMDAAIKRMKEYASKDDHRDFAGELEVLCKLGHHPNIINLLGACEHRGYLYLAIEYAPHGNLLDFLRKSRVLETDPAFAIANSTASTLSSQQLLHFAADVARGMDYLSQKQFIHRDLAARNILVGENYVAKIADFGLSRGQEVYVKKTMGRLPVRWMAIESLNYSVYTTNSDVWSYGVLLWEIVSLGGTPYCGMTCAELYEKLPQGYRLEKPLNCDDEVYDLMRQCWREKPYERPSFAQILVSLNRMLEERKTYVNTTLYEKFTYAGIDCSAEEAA
Summary of the method: as §1

[6] = molecular target: T6, AMPK A1/B1/G1 (Homo sapiens, UniProt P54619+Q13131+Q9Y478); conditions: estimated, abridged dose response curve, read-out: Kinase inhibitory activity EC50
T6 construct: purchased Invitrogen, Inc. (SelectScreen platform)
Summary of the method: as §1

[7] = molecular target: T7, EPHA5 (Homo sapiens, UniProt P54756); conditions: estimated, abridged dose response curve, read-out: Kinase inhibitory activity EC50
T7 construct: purchased Invitrogen (SelectScreen service)
Summary of the method: as §1

[8] = molecular target: T8, RPS6KA6 (RSK4) (Homo sapiens, UniProt Q9UK32); conditions: estimated, abridged dose response curve, read-out: Kinase inhibitory activity EC50
T8 construct: purchased Invitrogen, Inc. (SelectScreen platform)
T8 sequence (Q9UK32 whole entry): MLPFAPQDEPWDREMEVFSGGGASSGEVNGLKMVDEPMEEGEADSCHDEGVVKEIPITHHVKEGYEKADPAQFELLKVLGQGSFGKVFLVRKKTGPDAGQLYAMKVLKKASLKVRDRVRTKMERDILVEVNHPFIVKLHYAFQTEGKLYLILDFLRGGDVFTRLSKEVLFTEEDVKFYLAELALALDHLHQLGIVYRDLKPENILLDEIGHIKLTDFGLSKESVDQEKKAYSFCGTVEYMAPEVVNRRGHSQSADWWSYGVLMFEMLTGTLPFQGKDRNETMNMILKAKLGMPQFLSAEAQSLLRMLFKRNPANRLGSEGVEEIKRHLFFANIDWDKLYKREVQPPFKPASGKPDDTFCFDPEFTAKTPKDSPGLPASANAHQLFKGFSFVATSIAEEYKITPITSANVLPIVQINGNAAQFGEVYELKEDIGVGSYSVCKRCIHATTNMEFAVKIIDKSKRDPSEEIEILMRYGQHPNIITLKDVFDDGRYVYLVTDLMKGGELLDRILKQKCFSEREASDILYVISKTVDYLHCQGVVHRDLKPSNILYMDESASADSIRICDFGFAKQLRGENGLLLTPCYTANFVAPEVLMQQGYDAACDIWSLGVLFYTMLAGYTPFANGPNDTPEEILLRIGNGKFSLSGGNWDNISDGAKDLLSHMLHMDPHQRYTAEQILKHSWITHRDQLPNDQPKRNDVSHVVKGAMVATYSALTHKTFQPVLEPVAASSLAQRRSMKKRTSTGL
Summary of the method: as §1

[9] = molecular target: T9, PDGFRA (PDGFR alpha) (Homo sapiens, UniProt P16234); conditions: estimated, abridged dose response curve, read-out: Kinase inhibitory activity EC50
T9 construct: purchased Invitrogen (SelectScreen platform)
Summary of the method: as §1

[10] = molecular target: T10, CDC42 BPA (MRCKA) (Homo sapiens, UniProt Q5VT25); conditions: estimated, abridged dose response curve, read-out: Kinase inhibitory activity EC50
T10 construct: purchased Invitrogen (SelectScreen platform)
Summary of the method: as §1

[11] = molecular target: T11, PIM2 (Homo sapiens, UniProt Q9P1W9); conditions: estimated, abridged dose response curve, read-out: Kinase inhibitory activity EC50
T11 construct: purchased Invitrogen, Inc. (SelectScreen platform)
T11 sequence (Q9P1W9 whole entry): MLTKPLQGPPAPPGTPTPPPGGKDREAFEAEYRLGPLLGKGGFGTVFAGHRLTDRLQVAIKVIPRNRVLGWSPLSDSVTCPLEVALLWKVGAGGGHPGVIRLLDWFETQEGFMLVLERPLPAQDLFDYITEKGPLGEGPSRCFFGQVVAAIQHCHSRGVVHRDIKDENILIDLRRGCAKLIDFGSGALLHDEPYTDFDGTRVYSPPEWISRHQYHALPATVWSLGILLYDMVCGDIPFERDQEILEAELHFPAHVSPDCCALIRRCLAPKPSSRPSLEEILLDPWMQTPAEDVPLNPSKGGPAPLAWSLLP
Summary of the method: as §1

[12] = molecular target: T12, MAPK12 (p38 gamma) (Homo sapiens, UniProt P53778); conditions: estimated, abridged dose response curve, read-out: Kinase inhibitory activity EC50
T12 construct: purchased Invitrogen (SelectScreen platform)
Summary of the method: as §1

[13] = molecular target: T13, FGFR2 (Homo sapiens, UniProt P21802); conditions: estimated, abridged dose response curve, read-out: Kinase inhibitory activity EC50
T13 construct: purchased Invitrogen (SelectScreen platform)
T13 sequence (P21802 22-821): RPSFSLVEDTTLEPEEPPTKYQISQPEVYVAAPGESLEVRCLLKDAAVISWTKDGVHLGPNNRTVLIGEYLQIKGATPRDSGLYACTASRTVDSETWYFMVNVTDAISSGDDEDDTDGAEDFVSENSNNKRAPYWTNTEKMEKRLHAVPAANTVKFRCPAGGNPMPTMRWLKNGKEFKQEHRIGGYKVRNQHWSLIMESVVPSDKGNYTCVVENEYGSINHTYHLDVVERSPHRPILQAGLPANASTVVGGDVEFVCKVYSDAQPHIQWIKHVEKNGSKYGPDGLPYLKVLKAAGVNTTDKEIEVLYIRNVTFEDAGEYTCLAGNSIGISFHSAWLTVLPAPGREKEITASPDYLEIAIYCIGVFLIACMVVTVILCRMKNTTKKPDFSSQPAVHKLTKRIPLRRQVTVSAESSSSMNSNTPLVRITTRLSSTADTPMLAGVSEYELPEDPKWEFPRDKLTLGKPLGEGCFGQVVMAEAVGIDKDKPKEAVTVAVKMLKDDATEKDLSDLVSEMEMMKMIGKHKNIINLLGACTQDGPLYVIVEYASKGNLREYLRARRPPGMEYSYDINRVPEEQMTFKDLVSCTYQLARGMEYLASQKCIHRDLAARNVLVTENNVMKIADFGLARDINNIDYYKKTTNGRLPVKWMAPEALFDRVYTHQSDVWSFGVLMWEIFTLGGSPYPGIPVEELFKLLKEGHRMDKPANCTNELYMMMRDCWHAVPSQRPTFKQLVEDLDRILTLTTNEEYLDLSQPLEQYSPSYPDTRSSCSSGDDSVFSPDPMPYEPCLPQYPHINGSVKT
Summary of the method: as §1

[14] = molecular target: T14, PRKCQ (PKC theta) (Homo sapiens, UniProt Q04759); conditions: estimated, abridged dose response curve, read-out: Kinase inhibitory activity EC50
T14 construct: purchased Invitrogen, Inc. (SelectScreen platform)
Summary of the method: as §1

[15] = molecular target: T15, ITK (Homo sapiens, UniProt Q08881); conditions: estimated, abridged dose response curve, read-out: Kinase inhibitory activity EC50
T15 construct: purchased Invitrogen (SelectScreen)
Summary of the method: as §1

[16] = molecular target: T16, CSNK1D (CK1 delta) (Homo sapiens, UniProt P48730); conditions: estimated, abridged dose response curve, read-out: Kinase inhibitory activity EC50
T16 construct: purchased Invitrogen (SelectScreen platform)
Summary of the method: as §1

[17] = molecular target: T17, ABL1 E255K (Homo sapiens, UniProt P00519, E255K); conditions: estimated, abridged dose response curve, read-out: Kinase inhibitory activity EC50
T17 construct: purchased Invitrogen (SelectScreen platform)
Summary of the method: as §1

[18] = molecular target: T18, DCAMKL2 (DCK2) (Homo sapiens, UniProt Q8N568); conditions: estimated, abridged dose response curve, read-out: Kinase inhibitory activity EC50
T18 construct: purchased Invitrogen, Inc. (SelectScreen platform)
Summary of the method: as §1

[19] = molecular target: T19, CSNK1G3 (CK1 gamma 3) (Homo sapiens, UniProt Q9Y6M4); conditions: estimated, abridged dose response curve, read-out: Kinase inhibitory activity EC50
T19 construct: purchased Invitrogen (SelectScreen platform)
Summary of the method: as §1

[20] = molecular target: T20, FYN (Homo sapiens, UniProt P06241); conditions: estimated, abridged dose response curve, read-out: Kinase inhibitory activity EC50
T20 construct: purchased Invitrogen (SelectScreen)
T20 sequence (P06241 whole entry): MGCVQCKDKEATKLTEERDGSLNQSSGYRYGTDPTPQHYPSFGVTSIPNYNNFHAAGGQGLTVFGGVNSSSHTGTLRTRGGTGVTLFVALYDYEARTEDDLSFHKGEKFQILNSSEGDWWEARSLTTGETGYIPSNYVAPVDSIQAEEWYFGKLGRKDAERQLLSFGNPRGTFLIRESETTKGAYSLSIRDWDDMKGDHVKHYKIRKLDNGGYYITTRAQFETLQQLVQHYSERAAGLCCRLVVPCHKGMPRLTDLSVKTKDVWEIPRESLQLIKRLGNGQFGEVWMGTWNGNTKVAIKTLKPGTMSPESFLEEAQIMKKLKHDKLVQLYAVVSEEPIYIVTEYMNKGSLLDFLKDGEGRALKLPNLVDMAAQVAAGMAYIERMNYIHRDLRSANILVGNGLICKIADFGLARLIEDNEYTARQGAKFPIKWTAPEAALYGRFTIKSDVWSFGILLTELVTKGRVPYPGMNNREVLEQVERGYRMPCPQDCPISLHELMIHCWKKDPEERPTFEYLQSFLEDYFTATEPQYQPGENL
Summary of the method: as §1

[21] = molecular target: T21, BLK (Homo sapiens, UniProt P51451); conditions: estimated, abridged dose response curve, read-out: Kinase inhibitory activity EC50
T21 construct: purchased Invitrogen (SelectScreen)
Summary of the method: as §1

[22] = molecular target: T22, EPHB1 (Homo sapiens, UniProt P54762)
T22 construct: purchased Invitrogen (SelectScreen service)
T22 sequence (P54762 18-984): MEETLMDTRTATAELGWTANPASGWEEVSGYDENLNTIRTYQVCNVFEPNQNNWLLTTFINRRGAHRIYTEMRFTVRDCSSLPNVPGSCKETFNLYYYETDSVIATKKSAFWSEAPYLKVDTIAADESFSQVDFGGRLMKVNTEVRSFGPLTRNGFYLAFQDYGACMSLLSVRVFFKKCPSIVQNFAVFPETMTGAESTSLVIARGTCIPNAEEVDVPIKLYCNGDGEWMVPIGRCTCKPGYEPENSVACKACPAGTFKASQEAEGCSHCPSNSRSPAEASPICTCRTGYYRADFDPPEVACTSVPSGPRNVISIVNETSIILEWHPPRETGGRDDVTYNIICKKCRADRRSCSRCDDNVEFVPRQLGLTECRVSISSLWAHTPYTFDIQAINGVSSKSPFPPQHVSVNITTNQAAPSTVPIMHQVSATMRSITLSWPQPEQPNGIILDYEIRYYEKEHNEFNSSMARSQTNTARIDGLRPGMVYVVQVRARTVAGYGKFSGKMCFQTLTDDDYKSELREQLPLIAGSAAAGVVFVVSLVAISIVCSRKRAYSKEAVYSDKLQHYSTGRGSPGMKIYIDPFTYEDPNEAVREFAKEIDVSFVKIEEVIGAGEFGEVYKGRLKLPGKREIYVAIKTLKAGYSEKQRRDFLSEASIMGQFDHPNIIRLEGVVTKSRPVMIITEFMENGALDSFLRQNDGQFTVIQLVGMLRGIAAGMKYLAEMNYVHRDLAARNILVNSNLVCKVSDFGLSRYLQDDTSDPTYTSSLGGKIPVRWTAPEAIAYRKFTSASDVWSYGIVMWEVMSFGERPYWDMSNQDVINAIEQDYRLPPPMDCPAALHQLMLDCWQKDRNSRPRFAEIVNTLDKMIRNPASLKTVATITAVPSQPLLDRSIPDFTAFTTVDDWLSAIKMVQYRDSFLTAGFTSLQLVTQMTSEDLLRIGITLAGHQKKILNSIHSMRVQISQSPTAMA
Summary of the method: as §1

[23] = molecular target: T23, CSNK1G1 (CK1 gamma 1) (Homo sapiens, UniProt Q9HCP0); conditions: estimated, abridged dose response curve, read-out: Kinase inhibitory activity EC50
T23 construct: purchased Invitrogen (SelectScreen platform)
Summary of the method: as §1

[24] = molecular target: T24, LCK (Homo sapiens, UniProt P06239); conditions: estimated, abridged dose response curve, read-out: Kinase inhibitory activity EC50
T24 construct: purchased Invitrogen (SelectScreen)
Summary of the method: as §1

[25] = molecular target: T25, PRKG2 (PKG2) (Homo sapiens, UniProt Q13237); conditions: estimated, abridged dose response curve, read-out: Kinase inhibitory activity EC50
T25 construct: purchased Invitrogen, Inc. (SelectScreen platform)
Summary of the method: as §1

[26] = molecular target: T26, CSNK2A2 (CK2 alpha 2) (Homo sapiens, UniProt P19784); conditions: estimated, abridged dose response curve, read-out: Kinase inhibitory activity EC50
T26 construct: purchased Invitrogen, Inc. (SelectScreen service)
T26 sequence (P19784 whole entry): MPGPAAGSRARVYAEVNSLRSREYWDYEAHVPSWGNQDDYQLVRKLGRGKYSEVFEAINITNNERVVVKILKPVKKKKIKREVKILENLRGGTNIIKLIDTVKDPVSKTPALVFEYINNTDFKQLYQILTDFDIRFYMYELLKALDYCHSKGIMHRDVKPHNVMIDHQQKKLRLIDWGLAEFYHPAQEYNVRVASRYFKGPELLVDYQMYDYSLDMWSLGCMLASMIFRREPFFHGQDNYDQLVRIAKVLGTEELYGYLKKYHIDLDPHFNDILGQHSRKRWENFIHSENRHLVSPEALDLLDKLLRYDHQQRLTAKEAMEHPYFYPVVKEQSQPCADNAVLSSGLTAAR
Summary of the method: as §1

[27] = molecular target: T27, JAK2 (Homo sapiens, UniProt O60674); conditions: estimated, abridged dose response curve, read-out: Kinase inhibitory activity EC50
T27 construct: purchased Invitrogen (SelectScreen platform)
Summary of the method: as §1

| Structure (SMILES) | pEC50 [1] | pEC50 [2] | pEC50 [3] | pEC50 [4] | pEC50 [5] | pEC50 [6] | pEC50 [7] | pEC50 [8] | pEC50 [9] | pEC50 [10] | pEC50 [11] | pEC50 [12] | pEC50 [13] | pEC50 [14] | pEC50 [15] | pEC50 [16] | pEC50 [17] | pEC50 [18] | pEC50 [19] | pEC50 [20] | other results |
| --- | --- | --- | --- | --- | --- | --- | --- | --- | --- | --- | --- | --- | --- | --- | --- | --- | --- | --- | --- | --- | --- |
| CN(C)CCCNc1ccc2ncn3c4ccc5[nH]ncc5c4c(=O)c1c23 [Compound (IV)] | < 5.30 | 5.88 | < 5.30 | 6.00 | < 5.30 | < 5.30 | < 5.30 | 6.18 | 6.25 | < 5.30 | < 5.30 | < 5.30 | 5.54 | < 5.30 | 6.20 | 5.32 | 5.43 | < 5.30 | < 5.30 | 6.12 | pEC50 [21]: 6.32; pEC50 ([22]; EPHB1, estimated, abridged dose response curve, read-out: Kinase inhibitory activity EC50): < 5.30; pEC50 [23]: < 5.30; pEC50 [24]: 6.46; pEC50 [25]: 5.72; pEC50 [26]: < 5.30; pEC50 [27]: < 5.30 |
| CCN(CC)CCNc1ccc2ncn3c4ccc(O)cc4c(=O)c1c23 [Symadex, 5-(2-(diethylamino)ethylamino)-8-hydroxy-6H-imidazo[4,5,1-de]acridin-6-one, reference compound] | 5.61 | 5.74 | < 5.30 | 5.66 | < 5.30 | 5.46 | < 5.30 | 6.74 | 5.91 | < 5.30 | < 5.30 | < 5.30 | 5.35 | < 5.30 | < 5.30 | 6.17 | < 5.30 | < 5.30 | < 5.30 | < 5.30 | pEC50 [21]: 6.66; pEC50 [22]: < 5.30; pEC50 [23]: < 5.30; pEC50 [24]: 6.08; pEC50 [25]: 5.55; pEC50 [26]: 5.32; pEC50 [27]: < 5.30 |
